Results published in PubChem BioAssay AID1996.
In brackets after ≈: the same amount, converted by molar mass.

Settings: buffer; pH 7.4; 200.0 µM

Structure (SMILES)	solubility kinetic
Cc1ccc(N=C(N)N=C(N)N)c(C)c1	28.8 µg/mL (≈ 140 µM)
COc1nc(N(C)C)nc(N(C)c2cc(Cl)cc(Cl)c2)n1	0.4 µg/mL (≈ 1.22 µM)
O=C(NCc1cccc(Cl)c1)c1cc(=O)[nH]c2ccccc12	1.8 µg/mL (≈ 5.76 µM)
O=C(Cc1ccc(Cl)cc1Cl)OCC(=O)N1CCCCC1	> 49.5 µg/mL
O=C(COC(=O)CNC(=O)c1ccccc1F)NCC(F)(F)F	> 50.4 µg/mL
Cc1cccc(OCc2ccc(C(=O)Nc3cc(C)on3)o2)c1	< 0.3 µg/mL
O=C1c2cccnc2C(=O)N1CNc1ccc(Cl)cc1	34.5 µg/mL (≈ 120 µM)
Cl.NCCCCCc1nnc(SCC(N)=O)o1	> 42.1 µg/mL
COc1ccc(C(=O)OCC(=O)c2ccc(CNC(C)=O)s2)cc1	> 52.1 µg/mL
CC1CCN(C(=O)COc2cccc3c2CCN(Cc2ccccc2)C3=O)CC1	55.9 µg/mL (≈ 142 µM)
Cc1c(NS(=O)(=O)c2cccc(C(=O)N3CCCC3)c2)c(=O)n(-c2ccccc2)n1C	> 66.1 µg/mL
CC(C)[C@H](NC(=O)c1ccc(Cl)c([N+](=O)[O-])c1)C(=O)O	> 45.1 µg/mL
Cc1cc(C(=O)NC2CCCCCCC2)ccc1[N+](=O)[O-]	1.1 µg/mL (≈ 3.79 µM)
Cc1cccc(Cn2c(-c3ccc[nH]c3=O)nc3ccccc32)c1	36.7 µg/mL (≈ 116 µM)
COc1cccc(CNC(=O)CCCC(=O)Nc2cccc([N+](=O)[O-])c2)c1	> 55.7 µg/mL
O=[N+]([O-])c1cc(/C=N/N2CCOCC2)cs1	> 36.2 µg/mL
Cc1ccc(NCCC(=O)c2cccc([N+](=O)[O-])c2)c(C)c1	1.7 µg/mL (≈ 5.7 µM)
COc1ccc(NC(=S)Nc2ccccc2Cl)cn1	38.8 µg/mL (≈ 132 µM)
CCN(CC)CC.COc1ccc(-n2c(=S)[nH]c3c(sc(=S)n3-c3ccccc3)c2=O)c(OC)c1	> 64.4 µg/mL
COc1ccc2c(c1)c1ncn(CC3CCCO3)c(=O)c1n2C (stereo not drawn)	38.6 µg/mL (≈ 123 µM)
O=C(CSC(=S)N1CCOCC1)c1cc2ccccc2oc1=O	7.4 µg/mL (≈ 21.2 µM)
Cc1ccc(C)c(C(=O)CN2C(=O)c3ccccc3C2=O)c1	0.9 µg/mL (≈ 3.07 µM)
COc1cc(/C=C/C(=O)OCC(=O)NC(=O)C2COc3ccccc3O2)ccc1OC(F)F (stereo not drawn)	15.4 µg/mL (≈ 33.2 µM)
CCCN(CCC)CC(O)COc1ccc2c(c1)OCO2.Cl (stereo not drawn)	45.5 µg/mL

Structure (SMILES)	solubility kinetic
CC(=O)c1cccc(NC(=O)CC2CCCC2)c1	> 36.8 µg/mL
Cc1ccc(C(=O)NCC(=O)Nc2cc(C)ccn2)cc1	> 42.5 µg/mL
O=C(COC(=O)c1ccc2ccccc2n1)Nc1ccccc1Br	12.4 µg/mL (≈ 32.2 µM)
O=C(CNC(=O)c1ccc(Cl)cc1)c1ccc(Br)cc1	< 0.8 µg/mL
CCc1cccc(CC)c1-n1c(SCC(=O)N2CCc3ccccc32)nc(O)cc1=O	60 µg/mL (≈ 138 µM)
O=C(NCCCN1CCCC1=O)Nc1cc(Cl)ccc1Cl	> 49.5 µg/mL
COc1cccc(C(=O)OCC(=O)NC(=O)NC2CCCC2)c1O	38.5 µg/mL (≈ 114 µM)
Cc1cccc(C(=O)N2CCCC(c3nc(-c4ccc(F)cc4)no3)C2)c1 (stereo not drawn)	12.4 µg/mL (≈ 33.9 µM)
CC(C)NC(=O)[C@H]1N2C(=O)c3ccccc3C2SC1(C)C (stereo partly drawn)	> 45.7 µg/mL
COc1ccc(CCNC(=O)COC(=O)/C=C/c2ccc(OC)cc2OC)cc1	5.1 µg/mL (≈ 12.8 µM)
CSc1ncc(C(=O)Nc2ccc(C(C)=O)cc2)c(C)n1	> 45.2 µg/mL
O=C1CN(C(=O)c2cccc([N+](=O)[O-])c2)CC(=O)N1	> 39.5 µg/mL
COc1ccccc1C(=O)NC(CCSC)C(=O)Nc1ccc(C)c(S(=O)(=O)N2CCOCC2)c1 (stereo not drawn)	19.2 µg/mL (≈ 36.8 µM)
O=C(CCNC(=O)c1ccccc1Cl)NC1=NCCS1	42.8 µg/mL (≈ 137 µM)
C=CCn1c(O)c(C(C)=NCC2CCCO2)c(=O)[nH]c1=O (stereo not drawn)	> 44 µg/mL
O=C(NCC1CCCO1)c1cc2c(s1)CCCC2 (stereo not drawn)	> 39.8 µg/mL
CN(C)C(=O)CN1c2cccc3cccc(c23)S1(=O)=O	> 43.6 µg/mL
COC(=O)c1ccc(N=C2SCC(=O)N2C)cc1	> 39.6 µg/mL
COc1ccc(CC(=O)Nc2ccccc2N2CCCC2)cc1	41.6 µg/mL (≈ 134 µM)
CN(c1ccccc1)c1nc(N)c([N+](=O)[O-])c(Nc2ccccc2F)n1	< 0.1 µg/mL
CCC(CC)NC(=O)C1CC(=O)N(CCc2ccc(F)cc2)C1 (stereo not drawn)	> 48.1 µg/mL
COCc1cc(=O)[nH]c(SC)n1	> 27.9 µg/mL
COc1ccc(C(=O)n2cc(C(C)=O)c3ccccc32)cc1	1.3 µg/mL (≈ 4.43 µM)
O=C(COC(=O)c1ccc(F)c([N+](=O)[O-])c1)NC(=O)NCc1ccccc1	21.3 µg/mL (≈ 56.8 µM)

Structure (SMILES)	solubility kinetic
CCOc1ccccc1Nc1nnc(SCC(=O)NC2CCS(=O)(=O)C2)s1 (stereo not drawn)	> 64.3 µg/mL
C/C=C/C(=O)OCC(=O)Nc1cccc(F)c1	> 35.6 µg/mL
COc1ccc(CCC(C)NCc2ccc(C(F)(F)F)cc2)cc1 (stereo not drawn)	30.5 µg/mL (≈ 90.4 µM)
COC(=O)c1ccc(N2CCN(C(=O)C3CC3)CC2)c([N+](=O)[O-])c1	> 50 µg/mL
O=C(COC(=O)C1CC1)Nc1ccc2c(c1)OCO2	> 39.5 µg/mL
Cc1ccc(N2C(=O)CC3(CCCC3)CC2=O)cc1	34.3 µg/mL (≈ 133 µM)
CCOC(=O)N1CCN(c2ccncc2S(=O)(=O)N2CCCCC2)CC1	> 57.4 µg/mL
O=S(=O)(Nc1ccc(F)cc1)c1ccc(S(=O)(=O)N2CCOCC2)cc1	12.6 µg/mL (≈ 31.5 µM)
O=C(CNC(=O)C1CCCCC1)NC1CCCCC1	> 40 µg/mL
Cc1nccc(-c2cccc(NC(=O)c3ccccc3Cl)c2)n1	35 µg/mL (≈ 108 µM)
CCN(CC)CCNS(=O)(=O)c1ccc2c3c(cccc13)C(=O)N2	> 52.1 µg/mL
CCN(CC)S(=O)(=O)c1ccc(Oc2ccccc2OC)cc1	10 µg/mL (≈ 29.8 µM)
CNC(=O)CNC(=O)Nc1ccc(C)cc1	> 33.2 µg/mL
O=C1NC(=O)C2(CCCc3ccccc32)N1 (stereo not drawn)	30.6 µg/mL (≈ 142 µM)
Cc1ccc(C)c(NCc2ccccc2CO)c1	> 36.2 µg/mL
COc1ccc(C(=O)OCC(=O)NCc2cccs2)c(OC)c1OC	> 54.8 µg/mL
COc1ccc(CCC(C)N2CCc3ccccc3C2)cc1 (stereo not drawn)	39.1 µg/mL (≈ 132 µM)
S=C1CSc2ccccc2N1	25.1 µg/mL (≈ 138 µM)
CSc1ncccc1C(=O)OCC(=O)Nc1cccc(S(=O)(=O)N2CCOCC2)c1	34.7 µg/mL (≈ 76.9 µM)
Cn1cc(/C=C(\C#N)C(=O)Nc2ccccc2O)c2ccccc21	< 0.2 µg/mL
C[N+](C)(C)C[C@H](O)CC(=O)O.[Cl-]	> 29.6 µg/mL
CCc1ccc(C(C)NC(=S)NCc2ccc(F)cc2)cc1 (stereo not drawn)	1 µg/mL (≈ 3.16 µM)
COc1ccc2oc(C(=O)OCC(=O)NC(=O)c3ccccc3)c(C)c2c1	4.5 µg/mL (≈ 12.2 µM)
CC(C)CCN(CCC(C)C)C(=O)Cc1c(O)c2ccccc2[nH]c1=O	2.7 µg/mL (≈ 7.53 µM)

Structure (SMILES)	solubility kinetic
N=C(N)c1ccccc1	> 18 µg/mL
Cc1ccccc1C(=O)NC(=S)N(C)CCc1ccccn1	> 47 µg/mL
Cc1ccc(O)c(CNc2cnc3ccccc3c2)c1	18.1 µg/mL (≈ 68.5 µM)
CC1CC1C(=O)OCC(=O)NC(=O)c1ccc(C(C)(C)C)cc1 (stereo not drawn)	7.5 µg/mL (≈ 23.6 µM)
O=C(Nc1ccc(C(F)(F)F)cn1)Nc1cccs1	0.8 µg/mL (≈ 2.78 µM)
COc1ccc(S(=O)(=O)N2CCCCC2)cc1NS(=O)(=O)c1ccccc1	4.3 µg/mL (≈ 10.5 µM)
CCCOc1ccc(-c2c(=O)n(O)c3ccccc3[n+]2[O-])cc1	> 46.8 µg/mL
O=C(NC1CCCCC1)c1cc(-c2ccc(Cl)cc2)on1	0.5 µg/mL (≈ 1.64 µM)
CN(C)c1cc2c(cc1NS(=O)(=O)c1ccccc1)n(C)c(=O)n2C	48 µg/mL (≈ 133 µM)
CC(NC(=O)CNC(=O)c1ccco1)c1ccccc1 (stereo not drawn)	> 40.8 µg/mL
CC(=O)NCCc1ccc(C(=O)Cn2cnc3ccccc3c2=O)cc1	> 52.4 µg/mL
NS(=O)(=O)c1ccc(CNC(=O)c2ccncc2)cc1	> 43.7 µg/mL
CCc1ccc(C(CC(=O)O)N2Cc3ccccc3C2=O)cc1 (stereo not drawn)	> 46.4 µg/mL
CCc1ccccc1NC(=O)c1ccc(S(=O)(=O)N2CCCC2)cc1	12.2 µg/mL (≈ 34 µM)
Cc1c(N)c(C)c([N+](=O)[O-])c(C)c1[N+](=O)[O-]	6.9 µg/mL (≈ 30.6 µM)
CCOc1cc(/C=C/c2nc3ccccc3c(=O)[nH]2)ccc1O	32.4 µg/mL (≈ 105 µM)
CC(C)C(=O)NC(=O)COC(=O)/C=C/c1cccs1	21.6 µg/mL (≈ 76.8 µM)
Cc1cc(NC(=O)Cn2c(=O)oc3ccccc32)no1	8.6 µg/mL (≈ 31.5 µM)
COc1ccc(NCCC(O)c2ccc(Cl)cc2)cc1 (stereo not drawn)	40.5 µg/mL (≈ 139 µM)
CCC(C)c1ccc(NC(=S)N2CCN(c3ccccn3)CC2)cc1 (stereo not drawn)	2.6 µg/mL (≈ 7.33 µM)
CSc1ccc(CN2CCSCC2)cc1	17 µg/mL (≈ 71 µM)
COc1ccc(Cl)cc1NC(=O)COC(C)=O	> 38.7 µg/mL
O=c1onc(-c2ccc(Cl)cc2Cl)n1-c1cccnc1	19.5 µg/mL (≈ 63.3 µM)
O=C1N[C@@H](Cc2ccccc2)C(=O)N2CCC[C@@H]12	> 36.6 µg/mL

Structure (SMILES)	solubility kinetic
COc1ccc(OC)c(Nc2nc(NCCC(C)C)nc(N)c2[N+](=O)[O-])c1	< 0.1 µg/mL
CC1=N/C(=C\c2ccccc2Cl)C(=O)O1	27.7 µg/mL (≈ 125 µM)
CCOC(=O)C1=C(C)Nc2ccccc2N=C1NC(=O)C1CCN(C(=O)c2ccccc2C)CC1	35.3 µg/mL (≈ 74.4 µM)
O=C(Cn1c(=O)n(CC2CS2)c2ccccc21)N1CCCCC1 (stereo not drawn)	> 49.7 µg/mL
O=C(Nc1ccccc1O)N1c2ccccc2Sc2ccccc21	< 0.4 µg/mL
Cc1ccc(C(=O)OCC(=O)NC2CCCCC2)o1	> 39.8 µg/mL
CSc1ncc(Cl)c(C(=O)Nc2c(C)cccc2C)n1	2.3 µg/mL (≈ 7.47 µM)
O=C(O)c1ccc[nH]c1=S	> 23.3 µg/mL
COc1ccc(-c2cc(C(=O)NCc3ccco3)c3ccccc3n2)cc1OC	1.7 µg/mL (≈ 4.38 µM)
Cc1ccc(CNC(=O)Nc2ccc(F)cc2F)n1C	> 41.9 µg/mL
O=C(COC(=O)c1cc(=O)c2ccccc2o1)NCC1CCCCC1	33 µg/mL (≈ 96.1 µM)
Cc1cccc(OP(N)(=O)Oc2cccc(C)c2C)c1C	3.9 µg/mL (≈ 12.8 µM)
Cc1ccnc(NC(=O)CNC(=O)c2cccs2)c1	> 41.3 µg/mL
CCC(=O)N(Cc1cc2ccccc2[nH]c1=O)c1ccc(OC)cc1	> 50.5 µg/mL
CC(=O)c1ccc(OCc2cc([N+](=O)[O-])cc3c2OCOC3)cc1	2.6 µg/mL (≈ 7.9 µM)
CN1CCN(C(=O)/C(=C/c2ccccc2F)NC(=O)c2ccccc2)CC1	> 55.1 µg/mL
CCOc1ccc(NC(=O)CCC(=O)Oc2ccc(C)cc2)cc1	19.5 µg/mL (≈ 59.6 µM)
CCOC(=O)C1CCN(C(=O)C2COc3ccccc3O2)CC1 (stereo not drawn)	32.3 µg/mL (≈ 101 µM)
C=CCOC(=O)c1cn(CC)c2nc(C)ccc2c1=O	> 40.8 µg/mL
CCn1c(CNC(=O)c2ccccc2F)cc2cc(C)ccc21	0.8 µg/mL (≈ 2.58 µM)
CCCCn1c(O)c(C(C)=NCc2cccnc2)c(=O)[nH]c1=O	> 47.5 µg/mL
Cc1nc2ccccn2c1-c1ccnc(=S)[nH]1	31.8 µg/mL (≈ 131 µM)
